The results in this text go back to patent US20090182055A1, “FUNGICIDAL AGENT CONTAINING N-CHLOROTAURINE AND USE THEREOF” (priority 2000, published 2009).

Each structure is given as a SMILES string.

In series [1] the test system is aspergillus, penicillum, fusarium, and candida in nasal mucus. In words: kill-off time in vitro of fungi in nasal mucus. The series is classed as cell-based. The conditions noted are these: 1% NCT-Na added to nasal mucus (diluted 1:10) of rhinosinusitis. The procedure: In the case of rhinosinusitis various species of fungus were found in the nasal mucus, e.g., aspergillus, penicillum, fusarium, and candida. If (diluted 1:10) 1% NCT-Na is added to this nasal mucus, then the kill-off time in vitro is less than 30 minutes.

A short description of series [2]: tolerability in vivo at various application sites. The settings on record: eye, middle ear, outer ear, skin ulcers, oral cavity, bladder.
Series [3] is described as follows: treatment of rhinosinusitis patients by nasal catheter rinsing. The series is classed as in vivo, human. The text has this:
Treatments with traditional fungicidal agents have on the contrary previously led to no success.
The importance of the agent lies, among other things, in the fact that, in the case of the mucus tissue polyps occurring in rhinosinusitis, regression could be observed so that the previously successful standard therapy, namely operative removal, can be avoided by the use of the agent according to the invention.
A person suffers from chronic rhinosinusitis with clear swelling of the mucus membranes in both maxillary sinuses with retention of secretion on the left, in ethmoid bone cells, sphenoidal sinus, and in the left frontal sinus. Labored nasal respiration. For 2 1/2 months increasing headaches at the back of the head, no improvement on antibiotic therapy.
The treatment with 1% NCT-Na took place over a total of 4 weeks, 3 times weekly, and included 12 treatments in all. Each time a 10-ml NCT-Na solution was applied by means of a nasal catheter (YAMIK) over a period of time of 12 minutes. Thereafter the rinsing solution was suctioned off.
patient suffered from chronic rhinosinusitis for ca. 1 year with swelling of the mucus membranes and increased secretion in the nasal cavity and all its adjacent cavities, strong polyposis and loss of the sense of smell.

Series [4] is described as follows: treatment of patients with ulcus cruris with saturated swabs. The series is classed as in vivo, human. The settings on record: Example 4, 1% NCT-Na versus 1% chloramine T control group. The procedure:
A group of 25 patients who suffered from ulcus cruris were treated. The treatment was done with swabs which were saturated with an aqueous solution of 1% NCT-Na (test group, 14 patients) or 1% chloramine T (control group, 11 patients) and applied directly to the ulcers and left there. The treatment was done over 5-14 days. The swabs were changed twice daily.

Series [5] can be described thus: treatment of patients with otitis externa with saturated strips. Type of series: in vivo, human. The conditions noted are these: changed daily. The procedure:
A group of 10 patients who suffered from otitis externa with affliction of the auditory canal were treated. For treatment, 12 cm long strips (tampons by Rauscher) were placed into the external auditory canal. The test group (5 persons) was treated with strips which were saturated with 1-ml 1% NCT-Na, the control group (5 persons) with strips which were saturated with 1-ml otosporin (content per ml: 10,000 IU polymyxin B sulfate, 3.5 mg neomycin as neomycin sulfate, 10 mg hydrocortisone).
The treatment was done over 5 days. The strips were changed daily.

As to `O=S(=O)(O)CCNCl` [NCT-Na, N-chlorotaurine], the “kill-off time in vitro” value in series [1] was “less than 30 minutes”. The tolerability in vivo entry in series [2] is on record as “tolerated outstandingly”. Besides, in series [3] (Example 1, 1% NCT-Na, after 7 treatments), the formation of secretion entry is given as “strong decline”. For the same compound, the nasal respiration result in series [3] (Example 1, 1% NCT-Na, after 9 treatments) is listed as “clearly improved”. Also, in series [3] (Example 1, person, 1% NCT-Na 10 ml, 3 times weekly, after the second application), the pains result was “complete remission of the pains”. Further, in series [3] (Example 2, 1% NCT-Na, at the end of the treatments (12 treatments, 4 weeks)), the polyposis nasi result was “unambiguous regression”. In addition, in series [3] (Example 2, patient, 1% NCT-Na 10 ml, 3 times weekly, after the sixth application), the sense of smell result was “substantial restoration”. In addition, the “symptoms of rhinosinusitis (pains, head pressure, loss of sense of smell, increased secretion, polyp formation)” value in series [3] (trials with rhinosinusitis patients, treatment of internal nasal surfaces with NCT-Na solution) was “improved substantially”. Moreover, the “pains after application of the solution” value in series [4] is “significantly less pains”. For the same compound, in series [5] (Example 3, strips saturated with 1 ml 1% NCT-Na in external auditory canal, 5 days), the tolerability result was “well tolerated”. For the same compound, in series [5] (Example 3, strips saturated with 1 ml test solution), the “period until healing, on average” value is on record as 3 days.
